Among the data in patent publication EP0745597A2, “Novel melatonergic indanyl piperazines or homopiperazines” (BRISTOL-MYERS SQUIBB COMPANY, priority 1995, dated 1996) are IC50 values, retold here.

This assay has as its target T1, human ML1B receptor (Homo sapiens, UniProt P49286).
T1 construct: host or cells: NIH 3T3 cells, stably transfected; membrane homogenates
T1 sequence (P49286 1-362): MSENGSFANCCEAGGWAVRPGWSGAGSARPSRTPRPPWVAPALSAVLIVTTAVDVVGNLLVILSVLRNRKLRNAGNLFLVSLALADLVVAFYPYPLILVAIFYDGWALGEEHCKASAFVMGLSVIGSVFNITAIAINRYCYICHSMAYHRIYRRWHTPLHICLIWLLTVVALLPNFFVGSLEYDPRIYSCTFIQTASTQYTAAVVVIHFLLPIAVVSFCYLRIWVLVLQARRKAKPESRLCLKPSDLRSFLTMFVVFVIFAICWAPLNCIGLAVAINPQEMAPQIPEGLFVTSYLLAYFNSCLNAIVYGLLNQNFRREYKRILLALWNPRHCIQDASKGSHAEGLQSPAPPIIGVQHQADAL
Briefly: Measurement of binding to melatonergic receptors (2-[125I]-iodomelatonin, membranes of transfected NIH 3T3 cells). To be noted: 2-[125I]-Iodomelatonin 200 pM, 37 °C for 1 hour, NIH 3T3 cells stably transfected with the human ML1B receptor; read-out: Melatonin Binding. The protocol:
The melatonergic binding affinities of various compounds of Formula I were determined by the method of Reppert, S. M., Weaver, D. R., and Ebisawa, R. (Neuron, Volume 13, 1177-1185, 1994). The assays were incubated at 37 °C for 1 hour, and the reaction was terminated by filtration. The filters were washed with wash buffer. […] The reagents, membrane and other techniques used in the melatonergic binding assays are more fully described below: • 1. Reagents: • (a) 50 mM Tris buffer containing 12.5 mM MgCl2, and 2mM EDTA, pH 7.4 at 37 °C. • (b) Wash buffer: 20 mM Tris base containing 2 mM MgCl2. pH 7.4 at room temperature. • (c) Melatonin (10^-5 M final concentration). • (d) 2-[^125I]-Iodomelatonin, 200 pM final concentration Source: NEN • 2. Membrane preparation: NIH 3T3 cells stably transfected with the human ML1B receptor were obtained from S.M. Reppert and maintained. Cells were pelleted when confluent. The supernatant was discarded and the pellets frozen. For preparing membrane homogenates, the pellets are thawed on ice and resuspended in TME buffer, Tris base, MgCl2, EDTA (pH 7.4 at 37 °C ), supplemented with aprotinin, leupeptin, and […]. The cells were then homogenized and centrifuged. The resulting pellet was resuspended with a Dounce homogenizer in TME and frozen. At assay, a small aliquot was thawed on ice and resuspended in TME buffer. […] These compounds are considered active.

With `COc1ccc2c(c1)C(N1CCN(C(=O)C3CC3)CC1)CC2` (centres unmarked) [1-(Cyclopropylcarbonyl)-4-(6-methoxy-indan-1-yl)piperazine], the IC50 was less than 10 nM.

As for `CCNC(=O)N1CCN(C2CCc3ccc(OC)cc32)CC1` (single isomer, unassigned; (-)) [(-)-N-Ethyl-4-(6-methoxy-indan-1-yl)piperazine-1-carboxamide], the IC50 is less than 10 nM.

`COc1ccc2c(c1)C(N1CCN(C(=O)c3sccc3Br)CC1)CC2` (single isomer, unassigned; (-)) [(-)1-[(3-Bromothien-2-yl)carbonyl]-4-(6-Methoxy-indan-1-yl)piperazine]: the IC50 was less than 10 nM.

Regarding `COc1ccc2c(c1)C(N1CCN(C(=O)N(C)C)CC1)CC2` (centres unmarked) [N,N-Dimethyl-4-(6-methoxy-indan-1-yl)piperazine-1-carboxamide], the IC50 was in the range of 10 to 100 nM.

As for `COc1ccc2c(c1)C(N1CCN(C(=O)C(C)(C)C)CC1)CC2` (centres unmarked) [1-(2,2-dimethyl-propanoyl)-4-(6-methoxy-indan-1-yl)piperazine], the IC50 lay within 10 to 100 nM.

For `COc1ccc2c(c1)C(N1CCN(C(=O)c3c[nH]c4ccccc34)CC1)CC2` (single isomer, unassigned; (-)) [(-)-1-[(1H-indol-3-yl)carbonyl]-4-(6-methoxy-indan-1-yl)piperazine], the IC50 fell in the range of 100 to 250 nM.

Turning to `CCCC(=O)N1CCN(C2CCCc3ccc(OC)cc32)CC1` (centres unmarked) [1-(1-Butanoyl)-4-(7-methoxy-tetralin-1-yl)piperazine], the IC50 was in the range of 10 to 100 nM.

For `CCCC(=O)N1CCN(C2CCc3ccc(OC)cc32)CC1` (centres unmarked) [1-Butanoyl-4-(6-methoxy-indan-1-yl)piperazine], the IC50 was less than 10 nM.

As to `COc1cc2c(cc1F)CCC2N1CCN(C(=O)C2CC2)CC1` (centres unmarked) [1-(Cyclopropylcarbonyl)-4-(5-fluoro-6-methoxy-indan-1-yl)piperazine], the IC50 was 10 to 100 nM.

For the molecule `CC(=O)NCCc1c(Cc2ccccc2)[nH]c2ccccc12` [Luzindole, reference compound], the IC50 was in the range of 100 to 250 nM.

As to `CCNC(=O)N1CCCN(C2CCc3ccc(OC)cc32)CC1` (centres unmarked) [N-Ethyl-4-(6-methoxy-indan-1-yl)homopiperazine-1-carboxamide], the IC50 was in the range of 10 to 100 nM.

Take `COc1ccc2c(c1)C(N1CCN(C(=O)C3CCC3)CC1)CC2` (centres unmarked) [1-(Cyclobutylcarbonyl)-4-(6-methoxy-indan-1-yl)piperazine]: the IC50 was less than 10 nM.

On to `COc1ccc2c(c1)C(N1CCN(C(=O)c3cc(Br)c(Br)s3)CC1)CC2` (single isomer, unassigned; (-)) [(-)-1-[(4,5-Dibromo-thien-2-yl)carbonyl]-4-(6-methoxy-indan-1-yl)piperazine], for which the IC50 is 100 to 250 nM.

Take `COc1ccc2c(c1)C(N1CCN(C(C)=O)CC1)CCC2` (centres unmarked) [1-Acetyl-4-(7-methoxy-tetralin-1-yl)piperazine]: the IC50 is 10 to 100 nM.

As for `C=C(C)C(=O)N1CCN(C2CCc3ccc(OC)cc32)CC1` (centres unmarked) [1-[(1-Methyl-ethenyl)carbonyl]-4-(6-methoxy-indan-1-yl)piperazine], the IC50 is less than 10 nM.

Regarding `COc1ccc2c(c1)C(N1CCN(C(=O)c3ccsc3)CC1)CC2` (single isomer, unassigned; (-)) [(-)-4-(6-Methoxy-indan-1-yl)-1-[(3-thienyl)carbonyl]piperazine], the IC50 is less than 10 nM.

For `COc1ccc2c(c1)C(N1CCCN(C(=O)C(C)C)CC1)CC2` (centres unmarked) [4-(6-Methoxy-indan-1-yl)-1-(2-methyl-propanoyl)homopiperazine], the IC50 lay in the range of 10 to 100 nM.

For the molecule `CCc1ccc2c(c1)C(N1CCN(C(=O)C(C)C)CC1)CC2` (centres unmarked) [4-(6-Ethyl-indan-1-yl)-1-(2-methylpropanoyl)piperazine], the IC50 lay in the range of 100 to 250 nM.

As for `CCCNC(=O)N1CCN(C2CCc3ccc(OC)cc32)CC1` (centres unmarked) [N-(n-Propyl)-4-(6-methoxy-indan-1-yl)piperazine-1-carboxamide], the IC50 lay within 10 to 100 nM.

`COc1ccc2c(c1)C(N1CCN(C(=O)c3ccccc3O)CC1)CC2` (single isomer, unassigned; (-)) [(-)-1-(2-Hydroxybenzoyl)-4-(6-methoxy-indan-1-yl)piperazine]: the IC50 was less than 10 nM.

For the molecule `COc1ccc2c(c1)C(N1CCN(C(=O)c3ccoc3)CC1)CC2` (single isomer, unassigned; (-)) [(-)-1-[(3-Furanyl)carbonyl]-4-(6-methoxy-indan-1-yl)piperazine], the IC50 was 10 to 100 nM.

As for `CCCCCCCCCOc1ccc2c(c1)C(N1CCN(C(=O)C3CC3)CC1)CC2` (centres unmarked) [1-(Cyclopropylcarbonyl)-4-(6-nonyloxy-indan-1-yl)piperazine], the IC50 fell in the range of 100 to 250 nM.

Consider `CNC(=O)N1CCN(C2CCc3cc(F)c(OC)cc32)CC1` (centres unmarked) [N-Methyl-4-(5-fluoro-6-methoxy-indan-1-yl)piperazine-1-carboxamide], for which the IC50 is 10 to 100 nM.

`COc1ccc2c(c1)C(N1CCN(C(=O)c3sccc3Cl)CC1)CC2` (single isomer, unassigned; (-)) [(-)-1-[(3-Chlorothien-2-yl)carbonyl]-4-(6-methoxy-indan-1-yl)-1-piperazine]: the IC50 was less than 10 nM.

For `C=CCCCCCCCCC(=O)N1CCN(C2CCc3ccc(OC)cc32)CC1` (single isomer, unassigned; (-)) [(-)-4-(6-Methoxy-indan-1-yl)-1-(10-undecenoyl)piperazine], the IC50 was in the range of 100 to 250 nM.

`COc1ccc2c(c1)C(N1CCN(C(=O)c3ccc[nH]3)CC1)CC2` (single isomer, unassigned; (-)) [(-)-4-(6-Methoxy-indan-1-yl)-1-[(1H-pyrrol-2-yl)carbonyl]-piperazine]: the IC50 was in the range of 10 to 100 nM.
